According to patent US10736909B2, “Use of trehalose for treatment of neurological diseases” (JUNAXO, INC., priority 2016, dated 2020):
“And” between values parts separate entries of the source, which are not always exact repeats. Equal values may be shown once. “Also recorded” adds a separate entry of the source. Read-outs that look alike come from different tables or passages of the source.

How the values were obtained:
[1] = test system: AAV α-synuclein rat; details: 2 and 5% in drinking water; He et al. 2015; cited from earlier work
[2] = test system: α-synuclein (αSYN); details: rodent models of PD; Tanji et al., He et al., Wu et al. 2015; cited from earlier work
[3] = test system: Rotenone-lesioned rat; details: 2% trehalose in drinking water; Wu et al. 2015; cited from earlier work
[4] = test system: rats receiving A53T αSYN; test: Cylinder test of forelimb asymmetry in AAV1/2 A53T αSYN rat model of PD; type: in vivo, Sprague-Dawley rats; details: Day 42, 2.67 g/kg, once per day p.o.
Method: Thirty female, Sprague-Dawley rats (280-325 g) split into 5 groups (N=4-8 rats/group) and received a unilateral injection in to the substantia nigra (at co-ordinates AP −5.2 mm; ML −2 mm relative to Bregma, DV −7.5 mm relative to skull over SN) of AAV1/2 delivering A53T alpha-synuclein (AAV1/2 αSYN) or empty vector (control). The A53T αSyn expressed is of the human sequence. Its control is an empty AAV1/2 vector of the same serotype and viral construction. Both AAV1/2 vectors were diluted in sterile phosphate buffered saline and administered at a volume of 2 μl. […]
Animal behavior was assessed pre-surgery and at 3 and 6 weeks post-surgery. Behaviour was assessed by the cylinder test to assess forelimb asymmetry with asymmetry indicating an imbalance in striatal dopaminergic function between the side injected with AAV1/2 αSYN and the contralateral side. […] Striatal tissue from both hemispheres was collected and analysed for dopamine levels. Substantia nigra tissue was collected and analysed for the number of TH^+ve cells and the amount of A53T αSYN measured. Plasma and brain (cerebellum) samples were collected and trehalose levels analysed by LC-MS/MS.

[5] = test system: Chronic MPTP-lesioned mouse; details: 1% in the drinking water; Ferguson et al. 2015; cited from earlier work
[6] = Plasma and brain trehalose levels 30 min post-dose in rat efficacy study (LC-MS/MS); type: in vivo, Sprague-Dawley rats; details: rats; for concentration at 30 min: Sprague-Dawley, rat
Method: Animal behavior was assessed pre-surgery and at 3 and 6 weeks post-surgery. Behaviour was assessed by the cylinder test to assess forelimb asymmetry with asymmetry indicating an imbalance in striatal dopaminergic function between the side injected with AAV1/2 αSYN and the contralateral side. Compounds that normalize the forelimb asymmetry are potentially useful for treating PD. After 6 weeks of trehalose treatment, the animals were killed approximately 30 mins after the last administration of trehalose. Striatal tissue from both hemispheres was collected and analysed for dopamine levels. Substantia nigra tissue was collected and analysed for the number of TH^+ve cells and the amount of A53T αSYN measured. Plasma and brain (cerebellum) samples were collected and trehalose levels analysed by LC-MS/MS.
When the animals were killed 30 mins post trehalose administration plasma and brain samples were collected (rats in the 0.89 g/kg/day group only received one dose of trehalose (0.89 g/kg) on this day). This time corresponds to approximately the Tmax of orally administered trehalose. […] Trehalose was measurable in the plasma 30 mins after receiving trehalose (0.89 or 2.67 g/kg) by oral gavage (Table 5). A 3-fold increase in the trehalose dose (0.89 g/kg to 2.67 g/kg) lead to an ˜6-fold increase in the trehalose plasma level, i.e. that increasing the dose produced a greater than dose-proportional increase in trehalose exposure. […] Trehalose was measurable in the brains of rats receiving trehalose (2.67 g/kg) by oral gavage (Table 5).
To better understand why administrating the same amount of trehalose by different routes led to differences in efficacy, studies were conducted to measure blood and brain levels of trehalose following administration of trehalose by 2% in the drinking water, three (3) times daily (0.89 g/kg each dose) and once daily (2.67 g/kg/day).

[7] = Plasma and brain pharmacokinetics in rats, 1 and 7 days oral administration; type: in vivo, Sprague-Dawley rats; details: for AUC(0-t): read-out: AUC0-12h
Method: One hundred Sprague-Dawley rats (200-260 g), female (60) and male (40), received trehalose (2.67 g/kg/day, oral gavage in sterile water) for 1 or 7 days. Groups of 5 rats (3 female, 2 male) were sacrificed at pre-dose and 15 min, 30 min, 1 h, 1.5 h, 2 h, 3 h, 4 h, 8 h and 12 h post-dose on days 1 and 7 and plasma and brain samples collected. Plasma and brain samples were analysed for trehalose levels using a validated LC-MS/MS method and plasma exposure timecourses (FIG. 1) and pharmacokinetic parameters were calculated (Table 6). Brain levels of trehalose were approximately 1% of plasma levels at all time-points (FIG. 1).

[8] = test system: Transgenic α-synuclein mouse; details: 2% trehalose in drinking water; Tanji et al. 2015; cited from earlier work
[9] = Brain and CSF trehalose levels in macaques after two days administration; type: in vivo; details: female, macaque, oral; for concentration at 1 h: 2.67 g/kg for two days
Method: In a subsequent step, the same 3 macaques were administered trehalose (2.67 g/kg) for two days. The macaques were then killed 1 h post-administration on day 2 and terminal brain and CSF samples collected. The brain and CSF trehalose levels were 81.3±13.8 ng/g and 562±346.5 ng/ml respectively. Similar to rats, trehalose levels in macaque brain tissue were ˜1% of the plasma level at the corresponding timepoint.

[10] = test system: MPTP-lesioned mouse; details: 2% trehalose in drinking water; Sarkar et al. 2014; cited from earlier work
[11] = both sexes, Sprague-Dawley, po, rat brain, Day 1, 2.67 g/kg p.o.
[12] = both sexes, Sprague-Dawley, po, rat brain, Day 7, 2.67 g/kg/day p.o.
[13] = both sexes, Sprague-Dawley, po, rat plasma, Day 1, 2.67 g/kg p.o.
[14] = both sexes, Sprague-Dawley, po, rat plasma, Day 7, 2.67 g/kg/day p.o.

In the case of `OC[C@H]1O[C@H](O[C@H]2O[C@H](CO)[C@@H](O)[C@H](O)[C@H]2O)[C@H](O)[C@@H](O)[C@@H]1O` [trehalose, (2R,3S,4S,5R,6R)-2-(Hydroxymethyl)-6-[(2R,3R,4S,5S,6R)-3,4,5-trihydroxy-6-(hydroxymethyl)oxan-2-yl]oxyoxane-3,4,5-triol], the Effect [1] is given as “Neuroprotection”, the “levels of α-synuclein (αSYN)” value [2] is given as “reduces” and the Effect [3] is given as “Neuroprotection”. The “% asymmetry (mean ± s.e.mean)” value [4] was “reduced the asymmetry”, the “Effect (behavioural)” value [5] was “No behavioural” and the “Effect on dopamine levels” value [5] was “effect. Some”. The concentration at 30 min ([6]; brain (cerebellum), cerebellum, 2.67 g/kg once daily oral gavage, 30 min post-dose, read-out: Brain trehalose level) was 52.8 ± 16.9 ng/mL, the concentration at 30 min ([6]; plasma, 0.89 g/kg 3 times daily oral gavage, 30 min after one 0.89 g/kg dose, read-out: Plasma trehalose level) was 1130 ± 178 ng/mL and the concentration at 30 min ([6]; plasma, 2.67 g/kg once daily oral gavage, 30 min post-dose, read-out: Plasma trehalose level) was 6380 ± 890 ng/mL. For the same compound, the Brain trehalose level ([6]; cerebellum, 0.89 g/kg 3 times daily oral gavage, 30 min after one 0.89 g/kg dose) was “below the limit of detection and BLQ”, the Brain trehalose level ([6]; cerebellum, 2% in drinking water) was “below the limit of detection and BLQ” and the Brain trehalose level ([6]; cerebellum, 2.67 g/kg once daily oral gavage, 30 min post-dose) was “measurable”. For the same compound, the Plasma trehalose level ([6]; 0.89 g/kg 3 times daily oral gavage, 30 min after one 0.89 g/kg dose) was “measurable”, the “increase in trehalose plasma level on 3-fold increase in dose” value ([6]; 0.89 g/kg to 2.67 g/kg, 30 min post-dose) was 6 fold and 5.6 fold and the Plasma trehalose level ([6]; 2% in drinking water, 6 weeks) was “below the limit of quantification and BLQ”. For the same compound, the Plasma trehalose level ([6]; 2.67 g/kg once daily oral gavage, 30 min post-dose) was “measurable”, the AUC(0-inf) [7, 11] was 97 ng·h/mL and the Cmax [7, 11] was 87 ng/mL. For the same compound, the Tmax [7, 11] was 15 min, the half-life [7, 11] was 48.6 min and the AUC(0-t) [7, 11] was 86.8 ng·h/mL. It also gave an AUC(0-inf) [7, 12] of 76.2 ng·h/mL, a Cmax [7, 12] of 73 ng/mL and a Tmax [7, 12] of 15 min. For the same compound, the half-life [7, 12] was 63.6 min, the AUC(0-t) [7, 12] was 65.3 ng·h/mL and the AUC(0-inf) [7, 13] was 11100 ng·h/mL. The Cmax [7, 13] was 8900 ng/mL, the Tmax [7, 13] was 15 min and the half-life [7, 13] was 45.6 min. It also gave an AUC(0-t) [7, 13] of 10900 ng·h/mL, an AUC(0-inf) [7, 14] of 9880 ng·h/mL and a Cmax [7, 14] of 8340 ng/mL. For the same compound, the Tmax [7, 14] was 15 min, the half-life [7, 14] was 53.4 min and the AUC(0-t) [7, 14] was 9490 ng·h/mL. The Kp ([7]; both sexes, Sprague-Dawley, rat, brain, po, rats, 2.67 g/kg/day p.o., all time-points, read-out: Brain levels of trehalose as % of plasma levels) was roughly 0.01, the “trehalose in plasma or brain 8 h post-dose” value ([7]; rats, 2.67 g/kg/day p.o., 8 h post-dose) was “no longer detectable; also recorded: No trehalose is found” and the “Effect (autophagy)” value [8] was “Increased”. For the same compound, the concentration at 1 h ([9]; CSF, 1 h post-administration on day 2, read-out: CSF trehalose level) was 562 ± 346 ng/mL, the concentration at 1 h ([9]; brain, 1 h post-administration on day 2, read-out: brain trehalose level) was 81.3 ± 13.8 ng/g and the Kp at 1 h ([9]; brain, 2.67 g/kg, corresponding timepoint (1 h), read-out: brain trehalose level as % of plasma level) was roughly 0.01. The Effect [10] was “Neuroprotection”.
